Results: patent publication US12459951B2, “Compounds that interact with RAS superfamily proteins for treatment of cancers, inflammatory diseases, rasopathies, and fibrotic disease” (SHY Therapeutics, LLC, priority 2022, dated 2025)

Columns and labels:
[1] = tested on: MiaPaca-2 (expressing KRAS G12C mutant); assay: Proliferation Assay (Cell Viability Assay); format: cell-based; details: Homo sapiens, MIA PaCa-2; read-out: Proliferation in MiaPaca-2: IC50
Procedure, shortened: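 After 2–4 days' exposure at 37 °C, 5% CO2 to a single 10 μM final concentration or a dilution series (IC50), percent proliferation inhibition was derived from CellTiter 96 Aqueous One viability readings. The medium contained 0.3% DMSO and 10% FBS. KRAS G12C MiaPaca-2 cells were plated at 2000–5000/well the day before.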

[2] = tested on: TNF-alpha; assay: TNF-alpha Quantification Assay (ELISA), LPS-stimulated RAW 264.7; format: cell-based; details: Mus musculus, RAW264.7; at 10 μM; read-out: TNFα: % inh.
[3] = tested on: IL6; assay: IL-6 Quantification Assay (ELISA), LPS-stimulated RAW 264.7; format: cell-based; design: inhibition: dose or concentration left out as unconfirmed; details: Mus musculus, RAW264.7; read-out: IL-6: % inh.
[4] = tested on: Erk1/2 phosphorylation; assay: Erk1/2 Phosphorylation Assay (western blot), Panc-1; format: cell-based, human; details: at 10 μM, * = activation
Procedure, shortened: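 Phospho-Erk1/2 (Thr202/Tyr204) was detected by western blot in lysates of Panc-1 cells (KRas G12D). These had 6 h, 37° C exposure to 10 μM compound or a dilution series for IC50, in 0.3% DMSO. Cells were either starved overnight in 0.5% FBS with a 15-min 1.5 ng/ml EGF pulse, or kept unstimulated in 10% FBS.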

IC50 [1]	Compound	inhibition at 10 µM [2]	inhibition [3]	% inh of Erk1/2 phosphorylation in Panc-1 [4]
< 0.15 µM	Cc1c(-c2ccn(C3CC3)n2)cn2nc(-c3nccn3C)nc(Nc3cc(OCC(F)(F)F)ccn3)c12 [Compound 140, 6-(1-Cyclopropyl-1H-pyrazol-3-yl)-5-methyl-2-(1-methyl-1H-imidazol-2-yl)-N-(4-(2,2,2-trifluoroethoxy)pyridin-2-yl)pyrrolo[2,1-f][1,2,4]triazin-4-amine]	0%	50 to 74%	D* (85-100% activation)
< 0.15 µM	Cc1c(-c2ccn(C3CC3)n2)cn2nc(-c3nccn3C)nc(Nc3cc(OC4CC4)ccn3)c12 [Compound 142, N-(4-Cyclopropoxypyridin-2-yl)-6-(1-cyclopropyl-1H-pyrazol-3-yl)-5-methyl-2-(1-methyl-1H-imidazol-2-yl)pyrrolo[2,1-f][1,2,4]triazin-4-amine]	0%	25 to 49%	C (50-84% inhibition)
< 0.15 µM	Cc1ccnc(Nc2nc(-c3nccn3C)nn3cc(-c4ccn(C5CC5)n4)c(C)c23)c1 [Compound 144, 6-(1-Cyclopropyl-1H-pyrazol-3-yl)-5-methyl-2-(1-methyl-1H-imidazol-2-yl)-N-(4-methylpyridin-2-yl)pyrrolo[2,1-f][1,2,4]triazin-4-amine]	1 to 24%	25 to 49%	A (1-25% inhibition)
< 0.15 µM	Cc1c(-c2ccn(C3CC3)n2)cn2nc(-c3nccn3C)nc(Nc3cc(N(C)C)ccn3)c12 [Compound 145, N^2-(6-(1-Cyclopropyl-1H-pyrazol-3-yl)-5-methyl-2-(1-methyl-1H-imidazol-2-yl)pyrrolo[2,1-f][1,2,4]triazin-4-yl)-N^4,N^4-dimethylpyridine-2,4-diamine]	1 to 24%	50 to 74%	C* (46-84% activation)
> 1 µM	Cc1c(-c2ccn(C3CC3)n2)cn2nc(-c3nccn3C)nc(Nc3cc(OCCN(C)C)ccn3)c12 [Compound 147, 6-(1-Cyclopropyl-1H-pyrazol-3-yl)-N-(4-(2-(dimethylamino)ethoxy)pyridin-2-yl)-5-methyl-2-(1-methyl-1H-imidazol-2-yl)pyrrolo[2,1-f][1,2,4]triazin-4-amine]	1 to 24%	0%	A* (1-25% activation)
> 1 µM	Cc1c(-c2ccn(C3CC3)n2)cn2nc(-c3nccn3C)nc(Nc3cc(O)ccn3)c12 [Compound 150, 2-((6-(1-Cyclopropyl-1H-pyrazol-3-yl)-5-methyl-2-(1-methyl-1H-imidazol-2-yl)pyrrolo[2,1-f][1,2,4]triazin-4-yl)amino)pyridin-4-ol]	0%	1 to 24%	A (1-25% inhibition)
> 1 µM	COCCO[C@H]1C[C@H](Nc2nc(-c3nccn3C)nn3cc(-c4cccnc4)c(C)c23)C1 [Compound 152, N-((1r,3r)-3-(2-methoxyethoxy)cyclo-butyl)-5-methyl-2-(1-methyl-1H-imidazol-2-yl)-6-(pyridin-3-yl)pyrrolo[2,1-f][1,2,4]triazin-4-amine]	0%	1 to 24%	B* (26-49% activation)
> 1 µM	CO[C@H]1C[C@@H](Nc2nc(-c3nccn3C)nn3cc(-c4cccnc4)c(C)c23)C1 [Compound 153, N-((1s,3s)-3-methoxy-cyclobutyl)-5-methyl-2-(1-methyl-1H-imidazol-2-yl)-6-(pyridin-3-yl)pyrrolo[2,1-f][1,2,4]triazin-4-amine]	0%	0%	A (1-25% inhibition)
< 0.15 µM	COc1ccnc(Nc2nc(-c3nccn3C)nn3cc(-c4cccnc4)c(C)c23)c1 [Compound 157, N-(4-Methoxy-pyridin-2-yl)-5-methyl-2-(1-methyl-1H-imidazol-2-yl)-6-(pyridin-3-yl)pyrrolo[2,1-f][1,2,4]triazin-4-amine]	0%	1 to 24%	C* (46-84% activation)
< 0.15 µM	COc1ccnc(Nc2nc(-c3nccn3C)nn3cc(-c4cccnc4)c(C)c23)n1 [Compound 158, N-(4-Methoxy-pyrimidin-2-yl)-5-methyl-2-(1-methyl-1H-imidazol-2-yl)-6-(pyridin-3-yl)pyrrolo[2,1-f][1,2,4]triazin-4-amine]	0%	1 to 24%	A (1-25% inhibition)
> 1 µM	CO[C@H]1C[C@H](Nc2nc(-c3nccn3C)nn3cc(-c4ccncc4)c(C)c23)C1 [Compound 159, N-((1r,3r)-3-Methoxycyclobutyl)-5-methyl-2-(1-methyl-1H-imidazol-2-yl)-6-(pyridin-4-yl)pyrrolo[2,1-f][1,2,4]triazin-4-amine]	0%	1 to 24%	A (1-25% inhibition)
> 1 µM	COCCO[C@H]1C[C@H](Nc2nc(-c3nccn3C)nn3cc(-c4ccnc(OC)c4)c(C)c23)C1 [Compound 161, N-((1r,3r)-3-(2-Methoxy-ethoxy)cyclo-butyl)-6-(2-methoxy-pyridin-4-yl)-5-methyl-2-(1-methyl-1H-imidazol-2-yl)pyrrolo[2,1-f][1,2,4]triazin-4-amine]	50 to 74%	75 to 100%	A (1-25% inhibition)

The remaining lines, values behind:

Compound	IC50 [1]	inhibition at 10 µM [2]	inhibition [3]	% inh of Erk1/2 phosphorylation in Panc-1 [4]
CCOc1ccnc(Nc2nc(-c3nccn3C)nn3cc(-c4ccn(C5CC5)n4)c(C)c23)c1 [Compound 141, 6-(1-Cyclopropyl-1H-pyrazol-3-yl)-N-(4-ethoxypyridin-2-yl)-5-methyl-2-(1-methyl-1H-imidazol-2-yl)pyrrolo[2,1-f][1,2,4]triazin-4-amine]	< 0.15 µM	0%	25 to 49%	B (26-49% inhibition)
Cc1c(-c2ccn(C3CC3)n2)cn2nc(-c3nccn3C)nc(Nc3ccccn3)c12 [Compound 143, 6-(1-Cyclopropyl-1H-pyrazol-3-yl)-5-methyl-2-(1-methyl-1H-imidazol-2-yl)-N-(pyridin-2-yl)pyrrolo[2,1-f][1,2,4]triazin-4-amine]	< 0.15 µM	50 to 74%	75 to 100%	D* (85-100% activation)
Cc1c(-c2ccn(C3CC3)n2)cn2nc(-c3nccn3C)nc(Nc3cc(OCCO)ccn3)c12 [Compound 146, 2-((2-((6-(1-Cyclopropyl-1H-pyrazol-3-yl)-5-methyl-2-(1-methyl-1H-imidazol-2-yl)pyrrolo[2,1-f][1,2,4]triazin-4-yl)amino)pyridin-4-yl)oxy)ethan-1-ol]	0.15 to 0.5 µM	1 to 24%	0%	D* (85-100% activation)
Cc1c(-c2ccn(C3CC3)n2)cn2nc(-c3nccn3C)nc(Nc3cc(OCCCN(C)C)ccn3)c12 [Compound 148, 6-(1-Cyclopropyl-1H-pyrazol-3-yl)-N-(4-(3-(dimethylamino)propoxy)pyridin-2-yl)-5-methyl-2-(1-methyl-1H-imidazol-2-yl)pyrrolo[2,1-f][1,2,4]triazin-4-amine]	> 1 µM	1 to 24%	1 to 24%	C* (46-84% activation)
Cc1c(-c2ccn(C3CC3)n2)cn2nc(-c3nccn3C)nc(Nc3cc(OCCCO)ccn3)c12 [Compound 149, 3-((2-((6-(1-Cyclopropyl-1H-pyrazol-3-yl)-5-methyl-2-(1-methyl-1H-imidazol-2-yl)pyrrolo[2,1-f][1,2,4]triazin-4-yl)amino)pyridin-4-yl)oxy)propan-1-ol]	0.51 to 1 µM	75 to 100%	75 to 100%	D* (85-100% activation)
CO[C@H]1C[C@H](Nc2nc(-c3nccn3C)nn3cc(-c4cccnc4)c(C)c23)C1 [Compound 151, N-((1r,3r)-3-Methoxycyclobutyl)-5-methyl-2-(1-methyl-1H-imidazol-2-yl)-6-(pyridin-3-yl)pyrrolo[2,1-f][1,2,4]triazin-4-amine]	> 1 µM	0%	0%	D* (85-100% activation)
Cc1c(-c2cccnc2)cn2nc(-c3nccn3C)nc(Nc3ccncn3)c12 [Compound 156, 5-Methyl-2-(1-methyl-1H-imidazol-2-yl)-6-(pyridin-3-yl)-N-(pyrimidin-4-yl)pyrrolo[2,1-f][1,2,4]triazin-4-amine]	< 0.15 µM	0%	1 to 24%	D* (85-100% activation)
COc1cc(-c2cn3nc(-c4nccn4C)nc(N[C@H]4C[C@H](OC)C4)c3c2C)ccn1 [Compound 160, N-((1r,3r)-3-Methoxycyclobutyl)-6-(2-methoxypyridin-4-yl)-5-methyl-2-(1-methyl-1H-imidazol-2-yl)pyrrolo[2,1-f][1,2,4]triazin-4-amine]	> 1 µM	25 to 49%	75 to 100%	A* (1-25% activation)
